Inhibition data for four molecules are collected here from patent US5696155A, “Dibenz[b,e]oxepin derivatives and pharmaceutical agents which contain them” (Boehringer Mannheim BmbH, priority 1993, dated 1997).

The assay addresses T1, human recombinant type II PLA2 (=synovial PLA2) (Homo sapiens, UniProt P14555).
T1 sequence (P14555 21-144): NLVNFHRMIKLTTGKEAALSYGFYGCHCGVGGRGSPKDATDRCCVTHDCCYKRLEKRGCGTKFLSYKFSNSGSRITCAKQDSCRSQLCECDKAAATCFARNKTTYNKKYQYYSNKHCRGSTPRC
The assay can be described thus: Inhibition of PLA2 activity (sPLA2 enzyme activity, in vitro). The format is biochemical. The note with it: means of 3 experiments (duplicate determinations); for inhibition at 0.1 µg/mL: concentration 0.1 μg/ml; for inhibition at 1 µg/mL: concentration 1 μg/ml; for inhibition at 10 µg/mL: concentration 10 μg/ml. The text has this:
Inhibition of PLA2 activity
The human recombinant type II PLA2 (=synovial PLA2) as a typical representative of a PLA2 was used for the test.
This documents the superiority of the new sPLA2 inhibitors compared to a cyclooxygenase inhibitor.

Take `CCOC(=O)c1cc(=O)c2c3c(ccc2o1)C(=O)c1ccc(O)cc1CO3` [Ex.2a), 7,12-dihydro-10-hydroxy-1H-4,13-dioxabenzo[4,5]cyclohepta[1,2-a]-naphthalene-1,7-dione-3-carboxylic acid-ethyl ester]: the inhibition at 0.1 µg/mL turned out to be 28%, the inhibition at 1 µg/mL is 52% and the inhibition at 10 µg/mL was 61%.

Consider `CCOC(=O)c1cc(=O)c2cc3c(cc2o1)OCc1cc(O)ccc1C3=O` [Ex.2c), 7,13-dihydro-2-hydroxy-5H-10,12-dioxabenzo[4,5]cyclohepta[1,2-b]-naphthalen-5,7-dione-9-carboxylic acid ethyl ester], for which the inhibition at 0.1 µg/mL was found to be 12%, the inhibition at 1 µg/mL worked out at 73% and the inhibition at 10 µg/mL worked out at 78%.

Turning to `CCCCCCCCOc1ccc2c(c1)COc1c(cc3c(=O)cc(C(=O)OCC)oc3c1CCC)C2=O` [Ex.4a), 7,13-dihydro-2-octyloxy-11-propyl-5H-10,12-dioxabenzo-[4,5]cyclo-hepta[1,2-b]naphthalen-5,7-dione-9-carboxylic acid ethyl ester], the inhibition at 0.1 µg/mL was 16%, the inhibition at 1 µg/mL amounted to 17% and the inhibition at 10 µg/mL is 49%.

Turning to `COc1ccc2c(c1)c(CC(=O)O)c(C)n2C(=O)c1ccc(Cl)cc1` [Indomethacin, reference compound], the inhibition at 1 µg/mL came to 0%.

A word on the inhibition: it is the percentage by which the read-out fell short of the control.
